Data as given in US20250186379A1, “METHODS AND AGENTS FOR DECREASING INSULIN RESISTANCE” (Whitehead Institute for Biomedical Research, priority 2021, published 2025).
“Also recorded” adds a separate entry of the source.

Experiments:
Format in all cases: cell-based, human
[1] = system: transcriptional condensates at SMAD7; experiment: IR-GFP and SMAD7 intronic RNA FISH colocalization in HepG2 cells
[2] = system: insulin signaling proteins (IR, IRS1, AKT, ERK, GSK3); experiment: Immunoblot of phosphorylated over total insulin signaling proteins in HepG2 cells
Description: Cells were washed with ice-cold PBS and lysed in Cell Lytic M (Sigma-Aldrich C2978) supplemented with protease and phosphatase inhibitors (Sigma Aldrich, 11873580001 and 4906837001) directly on the wells. Lysates were placed into a 1.5 ml tube and mixed at 4° C. for 20 min and then centrifuged at 13,000 rpm for 15 min. Protein concentration was determined using a BCA Protein Assay Kit (Life Technologies, 23250) according to the manufacturer's instructions. Equal amounts of protein (5-50 μg per sample) were separated on 10% or 12% Bis-Tris gels in 5% XT MOPS running buffer (Bio-Rad Laboratories, 1610788) at 100V until dye front reached the end of the gel. Protein was then transferred to a 0.45 μM PVDF membrane (Millipore, IPVH00010) in ice cold transfer buffer (25 mM Tris, 192 mM glycine, 20% methanol) at 300 mA for 1 hour or 250 mA for 2 hours at 4° C. After the transfer, membranes were blocked in 5% non-fat milk (LabScientific, M0842) dissolved in TBST (2% Tris HCl pH 8.0, 1.3% 5M NaCl, 0.05% Tween 20) or 5% BSA (VWR, 102643-516) in 1×TBST for 15 min to 1 hour at room temperature shaking. Membranes were then incubated overnight at 4° C. in 1:1000 primary antibody in 5% non-fat milk in TBST or 5% BSA in TBST. BSA was used for immunoblotting phosphorylated proteins, otherwise milk was used. Membranes were then washed three times for 5 min in TBST shaking at room temperature prior to incubation in 1:10,000 secondary antibody in 5% non-fat milk in TBST for 1 hour at room temperature. This was followed by three 10-minute washes in TBST. Membranes were developed with ECL substrate (Thermo Scientific, 34080) and imaged using a CCD camera. Immunoblot quantification was performed using the “analyze gel” tool on Fiji/ImageJ v2.1.0/153c.
The following primary antibodies were used for WB: anti-phosphorylated insulin receptor (Abcam, ab60946 and Cell Signaling 3026), anti-insulin receptor beta (Cell Signaling, 23413; Bethyl, A303-712A or Cell Signaling, 3025), anti-insulin receptor alpha (Cell Signaling, 74118), anti-phosphorylated AKT (Cell Signaling, 4056), anti-AKT (Cell Signaling, 9272), anti-phosphorylated ERK (Cell Signaling, 4377), anti-ERK (Cell Signaling, 9102), anti-beta Actin (Sigma Aldrich, A5441). The following secondary antibodies were used: donkey anti-rabbit IgG (Cytiva Life Sciences, NA934-1ML) and sheep anti-mouse IgG (Sigma Aldrich, NXA931V).
Cells were washed with ice-cold PBS (Life Technologies, AM9625) and lysed in Cell Lytic M (Sigma Aldrich C2978) supplemented with protease and phosphatase inhibitors (Sigma Aldrich, 11873580001 and 4906837001) directly on the wells. Lysates were placed into a 1.5 ml tube and mixed at 4° C. for 20 minutes, sonicated and then centrifuged at 12,000×g for 15 minutes. Super natant was collected and protein concentration was determined using a BCA Protein Assay Kit (Life Technologies, 23250) according to the manufacturer's instructions. Equal amounts of protein (5-50 μg per sample) were separated on 10% or 12% Bis-Tris gels in 5% XT MOPS running buffer (Bio-Rad Laboratories, 1610788) at 100V until dye front reached the end of the gel. Protein was then transferred to a 0.45 μM PVDF membrane (Millipore, IPVH00010) in ice cold transfer buffer (25 mM Tris, 192 mM glycine, 20% methanol) at 300 mA for 1 hour or 250 mA for 2 hours at 4° C. After the transfer, membranes were blocked in either 5% non-fat milk (LabScientific, M0842) dissolved in TBST (2% Tris HCl pH 8.0, 1.3% 5M NaCl, 0.05% Tween 20) or 5% BSA (VWR, 102643-516) in 1×TBST for 15 minutes to 1 hour at room temperature with shaking. Membranes were then incubated overnight at 4° C. in 1:1000 primary antibody (specific antibodies listed below) in 5% non-fat milk in TBST or 5% BSA in TBST. BSA was used for immunoblotting phosphorylated proteins, otherwise milk was used. […]

[3] = system: SMAD7; experiment: SMAD7 transcript levels (RNA-seq, RT-qPCR) in HepG2 cells
Description: RNA was extracted using TRIzol™ reagent following the manufacturer's instructions (Thermo Fisher Scientific, 15596026). cDNA synthesis was performed using qScript cDNA Supermix according to the manufacturer's instructions, using 1000 ng RNA as input (qScript cDNA SuperMix, QuantaBio—95048-500). qPCR was performed on a Thermo Fisher Scientific QuantStudio 6 machine using Fast SYBR™ Green Master Mix (Thermo Fisher Scientific 4385618). Expression data is presented after calculating the relative expression compared with the housekeeping gene RPLP0, using the equation Relative Quantification (RQ)=100/(2^(Target Gene Ct−RPLP0Ct). When data is reported relative to a sample condition, the condition of reference was set as 1 and the data of the other conditions were reported as a ratio (condition/condition of reference).
RNA sequencing was performed by the Whitehead Institute Genome Technology Core. Libraries were prepared using the KAPA HyperPrep stranded RNA kit following manufacturer's instructions. Samples were sequenced on a HiSeq2500 in High-Output mode generating 50 bases, single-end reads.
RNA-sequencing (RNA-seq) bioinformatics analysis was performed on the Whitehead High-Performance Computing Facility using the nf-core RNA-seq pipeline v1.4.2 (81) with Nextflow v20.04.1. Quality control of .fastq files was performed with FastQC v0.11.8. The reads were single-end and the strandedness was set to reverse. Low quality sequences were trimmed using Trim Galore!v0.6.4. Alignment was performed against the hg19 genome assembly using STAR v2.6.1d (85) and duplicates were marked using Picard MarkDuplicates v2.21.1. Quantification of transcripts using featureCounts v1.6.4 (86). Differential expression analysis was performed using edgeR v3.26.5 (87). deepTools v3.3.1 (88), dupRadar v1.14.0 (89), Qualimap v.2.2.2-dev (90), and MultiQC v1.7 were used for quality control. ERCC92 was used as RNA spike-in.

[4] = insulin resistant cells, acute insulin stimulation
[5] = insulin-sensitive HepG2 cells, acute insulin stimulation

For `CN(C)C(=N)N=C(N)N` [metformin, reference compound], which “IR levels in SMAD7 transcriptional condensates” value ([1]; metformin-treated insulin resistant cells, 3 nM insulin 5 min (FIG. 5D)) is on record?
The value was “increased”.

And the “IRS1 phosphorylation (pIRS1 over total IRS1, western blot)” value ([2]; insulin-resistant cells + metformin (FIG. 38))?
Its value is “partial rescue of IRS1 phosphorylation; also recorded: partially rescues phosphorylation of IRS1”.

What about the SMAD7 gene expression ([3]; metformin-treated insulin resistant cells) of the same compound?
Its SMAD7 gene expression is “elevated”.

Which results are given for “insulin: insulin (Sigma Aldrich, I9278-5ML) used for acute stimulation and chronic physiological or pathological exposure”?
levels of IR in transcriptional condensates at SMAD7 [1, 4]: did not increase the levels of IR in transcriptional condensates; also recorded: did not cause increased levels of IR in transcriptional condensates; colocalization of IR-containing condensates with SMAD7 nascent RNA ([1]; insulin sensitive cells, 0 nM versus 3 nM insulin): increased colocalization; phosphorylation of GSK3 after insulin stimulation ([2]; cells exposed to pathologic levels (3 nM) of insulin for two days): decreased phosphorylation of GSK3; phosphorylation of insulin signaling proteins after insulin stimulation ([2]; cells exposed to pathologic levels (3 nM) of insulin for two days vs physiologic (0.1 nM)): reduced phosphorylation of IR, IRS1, AKT and ERK; GSK3 phosphorylation ([2]; insulin-sensitive HepG2 cells, 3 nM insulin 5 minutes): increased GSK3 phosphorylation; AKT and ERK pathway activation [2, 5]: stimulate; also recorded: AKT and ERK pathway activation; IR phosphorylation [2, 5]: stimulate; also recorded: induced IR phosphorylation; SMAD7 gene expression [3, 4]: nor did it cause upregulation of SMAD7 gene expression; also recorded: nor did it upregulate SMAD7 gene expression; SMAD7 expression ([3]; insulin sensitive cells, before and after insulin stimulation (RNA-seq)): upregulated
